The values below come from article PMC7116137 (Molecular pharmacology, 2020).

The target in experiment [1] is complex of dopamine D1-receptor and wild-type A1R (Homo sapiens, UniProt P21728+P30542). As to the kind of experiment: BRET between D1R-NLuc and eYFP-tagged A1-receptor in HEK293 cells. The experiment is classed as cell-based. As to conditions: incubation with ligand 10 μM, response estimated at saturation.
The next experiment addresses T1, wild-type A1R (Homo sapiens, UniProt P30542).
T1 sequence (P30542 1-326): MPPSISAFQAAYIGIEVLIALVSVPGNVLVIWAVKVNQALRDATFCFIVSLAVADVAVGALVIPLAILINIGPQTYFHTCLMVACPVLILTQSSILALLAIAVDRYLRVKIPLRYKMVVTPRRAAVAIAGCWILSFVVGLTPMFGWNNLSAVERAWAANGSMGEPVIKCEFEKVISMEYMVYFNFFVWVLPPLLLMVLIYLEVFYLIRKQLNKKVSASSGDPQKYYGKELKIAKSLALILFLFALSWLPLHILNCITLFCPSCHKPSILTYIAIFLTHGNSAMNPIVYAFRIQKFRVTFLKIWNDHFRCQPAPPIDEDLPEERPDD
The experiment can be described thus: [35S]GTPγS binding to membranes of HEK293 cells. The experiment is classed as biochemical. The note with it: agonist-stimulated, curve fit; wt A1R. (In general: Binding of GTPγS marks nucleotide exchange on a G protein.)

Sequence of complex of dopamine D1-receptor and wild-type A1R (P21728 whole entry, one chain of several): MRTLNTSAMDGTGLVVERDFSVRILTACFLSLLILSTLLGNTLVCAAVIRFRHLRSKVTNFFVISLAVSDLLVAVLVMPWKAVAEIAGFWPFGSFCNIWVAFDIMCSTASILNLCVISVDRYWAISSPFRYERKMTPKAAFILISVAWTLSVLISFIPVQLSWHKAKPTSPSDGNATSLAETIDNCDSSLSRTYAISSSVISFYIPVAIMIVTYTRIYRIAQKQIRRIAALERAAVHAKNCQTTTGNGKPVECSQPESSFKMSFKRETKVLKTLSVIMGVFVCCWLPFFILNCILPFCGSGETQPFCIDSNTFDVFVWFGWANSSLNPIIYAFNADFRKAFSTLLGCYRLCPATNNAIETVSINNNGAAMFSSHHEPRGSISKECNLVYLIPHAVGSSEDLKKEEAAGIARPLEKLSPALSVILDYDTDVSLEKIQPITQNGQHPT

As for `OC[C@H]1O[C@@H](n2cnc3c(NC4CCCC4)ncnc32)[C@H](O)[C@@H]1O` [CPA, N6-cyclopentyladenosine], the “Maximum BRET signal” value in experiment [1] is 218 ± 64 milli BRET. For the same compound, the “maximal [35S]GTPγS binding (95% confidence interval)” value on wild-type A1R fell in the range of 91.5 to 101.3 fmol/mg.
